Here are results for two compounds from US8198317B2, “Methylenedioxy phenolic compounds and their use to treat disease” (The Ohio State University Research Foundation, priority 2008, dated 2012).

The subject of series [1] is Patients. Put plainly: Treatment of dyslipidemia in diabetic patients (Example 25). It is filed as in vivo, human. Conditions: oral, 12 months. From the text: Individuals with Type I and Type II diabetes are at risk for future cardiovascular events such as heart attacks, strokes and kidney disease. These individuals often have abnormalities in lipids such as elevations in triglycerides and VLDL cholesterol. They are on treatments such as hypolipidemic drug therapy such as statins and fibrates (Gemfibrozil or Fenofibrate) to lover cholesterol levels in conjunction with glycemia lowering strategies such as Insulin, PPAR γ agents, Metformin or sulfonylurea therapy. In addition to these treatments they will also receive an acceptable dose of a composition comprising a compound of the present invention in an acceptable carrier orally chronically for durations in excess of 12 months. In one study, (3,4-methylenedioxy phenyl acetate (INV 73); 3,4-methylenedioxy-6-nitrophenol (INV 74); 3,4-methylenedioxy-6-nitrophenyl acetate (INV 75); are administered to these individuals. The patients undergo lipid measurements at baseline and at the end of treatment for a 12 month duration. At the end of 12 months of treatment, there is lowering of VLDL cholesterol and a decrease in triglycerides.

The test system of series [2] is Patients. Put plainly: Treatment of patients with Type I and Type II diabetes (Example 24). Conditions: diabetic patients, oral, 12 months. It is filed as in vivo, human. The text has this: Individuals with Type I and Type II diabetes are at risk for future cardiovascular events such as heart attacks, strokes and kidney disease. These individuals are on prevention treatments such as hypolipidemic drug therapy such as statins and anti-hypertensive agents such as ACE inhibitors. They are already receiving glycemia lowering strategies such as Insulin, PPARγ agents, Metformin or sulfonylurea therapy. They also will receive an acceptable dose of a composition comprising a compound of the present invention in an acceptable carrier orally chronically for durations in excess of 12 months. In one study, 3,4-Methylenedioxy 6-nitro phenyl lipoate (INV-7465) or 3,4-Methylenedioxy phenyl lipoate (INV-7065) are administered to these individuals. The patients undergo the following measurements: HbA1C to assess glycemic control, urinary microalbuminura, blood pressure and lipid measurements. At the end of 12 months of treatment, there is lowering of HbA1C and urinary microalbuminuria. There is an improvement in VLDL cholesterol and a decrease in triglycerides with any of these treatments [(3,4-methylenedioxy phenyl acetate (INV 73); 3,4-methylenedioxy-6-nitrophenol (INV 74); 3,4-methylenedioxy-6-nitrophenyl acetate (INV 75); 3,4-Methylenedioxy 6-nitro phenyl lipoate (INV-7465) or 3,4-Methylenedioxy phenyl lipoate (INV-7065)].

Series [3] deals with Humans. The experiment in a line: Treatment of atherosclerosis in humans, primary prevention (Example 22). In kind it is in vivo, human. The conditions noted are these: oral, in excess of 12 months. From the text:
(§1) Individuals with risk factors for atherosclerosis such as family history, hypertension and high cholesterol are known to be at risk for future cardiovascular events such as heart attacks and strokes. These individuals are on primary prevention treatments such as hypolipidemic drug therapy such as statins aspirin and anti-hypertensive agents such as ACE inhibitors, diuretics or calcium channel blockers. They also will receive an acceptable dose of a composition comprising a compound of the present invention in an acceptable carrier orally chronically for durations in excess of 12 months. In one study, 3,4-methylenedioxy phenyl acetate (INV 73); 3,4-methylenedioxy-6-nitrophenol (INV 74); 3,4-methylenedioxy-6-nitrophenyl acetate (INV 75); 3,4-Methylenedioxy 6-nitro phenyl lipoate (INV-7465) or 3,4-Methylenedioxy phenyl lipoate (INV-7065) are administered to these individuals. A repeat IVUS measurement is made at the end of the treatment period to assess the effect of the infusion of the composition on coronary atherosclerosis in the target vessel.

In series [4] the test system is Human Umbilical Vein Endothelial Cells (HUVECs). The experiment in a line: MTT cell toxicity assay. The conditions noted are these: HUVEC, dose range of 10 nM to 100 μM. In kind it is cell-based. As for the experimental part: Cell Culture: All experiments were performed with cultured Human Umbilical Vein Endothelial Cells (HUVECs—Gibco, Invitrogen) and grown to confluence at 37° C. in a 5% CO2 humidified incubator, on tissue culture flasks previously coated with 1% gelatin in supplemented culture medium (M199 with 10% heat inactivated fetal calf serum, 100 U/ml penicillin, 100 μg/ml streptomycin, 2 mM glutamine, 10 mM HEPES, pH 7.4, heparin 12 I.U./ml, 1% retinal derived growth factor, Sigma). Following trypsin treatment, the cells were detached from the flasks and final mono-layers were prepared by seeding HUVECs on gelatin-precoated culture plates and then incubated for 24-48 h to ensure confluence. Cells up to the fourth passage were used for all experiments. Recombinant human TNF-α was purchased from R&D Systems (Minneapolis, Minn.).
Cell Toxicity Assays: Cellular toxicity was assessed by MTT [3-(4,5-dimethylthiazol-2-yl)-2,5-diphenyltetrazolium bromide] assay, a commercially available assay for assessment of cellular viability. INV-75 was added to HUVECs for 24 hours, and toxicity assays were performed at the end of this period. The MTT assay relies on the cellular reduction of positively charged tetrazolium salts to their intensely colored formazan product by mitochondrial dehydrogenases. Formazan production is decreased in the presence of impaired mitochondrial redox function and enhanced free radical production and may, therefore, be used as an index of cell viability responses to experimental interventions.
In short, after removing microtiter plates from the incubator, fresh medium containing a fixed volume of reconstituted MTT [3-(4,5-dimethylthiazol-2-yl)-2,5-diphenyltetrazlium bromide; final concentration: 0.5 mg/ml] was added to the wells; the plates were kept at 37° C. in a 5% CO2 environment for 2 h, and then the MTT solubilization solution provided by the manufacturer was added. The formazan product formed by the conversion of positively charged tetrazolium salts to the reduced state has low aqueous solubility and is present as purple crystals. Dissolving the formazan with a solubilization buffer (provided in kit) permits the convenient quantification of its formation. Optical density at OD 570 nm is then measured for each well on an absorbance plate reader. The within- and between-assay variability was 3 and 5%, respectively. Various concentrations of INV-75 was tested in cell based assays using the MTT assay, as described above. The concentrations tested ranged from 1 mM to 10 nM and the cells were exposed for over 24 hours in duration (FIG. 2).
(Formazan colour is commonly taken as a measure of viable cells.)

Series [5] has as its system Humans. The experiment in a line: Prevention or delay of onset of atherosclerosis in humans (Example 23). It is filed as in vivo, human. The conditions noted are these: 2 mg/kg to 50 mg/kg iv or im, one to six months. As for the experimental part: Individuals with documented risk factors for atherosclerosis and having high plasma cholesterol levels have a ultrasound analysis of the coronary (IVUS), carotid (IMT) or popliteal arteries to establish a baseline measurement. A portion of these individuals are […] administered a composition comprising a compound of the present invention in an acceptable carrier at a dose of 2 mg/kg to 50 mg/kg intravenously (iv) or intramuscular (im) I to 3 times per week over a period of approximately one to six months. The following compounds are administered to these individuals: 3,4-methylenedioxy phenyl acetate (INV 73); 3,4-methylenedioxy-6-nitrophenol (INV 74); 3,4-methylenedioxy-6-nitrophenyl acetate (INV 75); 3,4-Methylenedioxy 6-nitro phenyl lipoate (INV-7465) or 3,4-Methylenedioxy phenyl lipoate (INV-7065). The other individuals receive the carrier alone. A new ultrasound analysis at the end of the treatment period indicates higher levels of plaque in the vessels of individuals receiving the carrier.

Series [6] has as its system Humans. The experiment in a line: Treatment of established atherosclerosis in humans (Example 21). In kind it is in vivo, human. Conditions: oral, in excess of 12 months.
Text: as §1, with “established” for “risk factors for”, “with evidence of plaque in the coronary arteries, carotid arteries or peripheral arteries” for “such as family history, hypertension and high cholesterol”, “on” for “on primary prevention”, “as” for “as hypolipidemic drug therapy such as”, “statins” for “statins aspirin”, “orally and” for “orally”

In the case of `CC(=O)Oc1ccc2c(c1)OCO2` [INV-73, 3,4-Methylenedioxyphenyl acetate], the figures for the VLDL cholesterol result in series [1] and in series [2] were “lowering” and “improvement”, respectively. The triglycerides entry in series [1] and in series [2] was “decrease” throughout. The “plaque in the atherosclerotic coronary artery (IVUS)” value in series [3] and in series [6] was “reduced” each time. For the same compound, in series [4], the “cell toxicity results compared with those of INV-75” value was “identical”. Further, in series [5], the “preventing or reducing atherosclerosis (ultrasound, versus carrier alone)” value is “effective”.
Turning to `O=[N+]([O-])c1cc2c(cc1O)OCO2` [INV-74, 3,4-Methylenedioxy-6-nitrophenol], the VLDL cholesterol result in series [1] is given as “lowering”; in series [2], “improvement”. Further, the triglycerides result in series [1] and in series [2] was “decrease” throughout. Moreover, the “plaque in the atherosclerotic coronary artery (IVUS)” value in series [3] and in series [6] was “reduced” each time. In addition, the “cell toxicity results compared with those of INV-75” value in series [4] is “identical”. Also, the “preventing or reducing atherosclerosis (ultrasound, versus carrier alone)” value in series [5] is “effective”.
